Assay results as given in patent US20240207291A1, “METHODS FOR TREATING POXVIRUS INFECTIONS” (priority 2022, published 2024).
Several values for one entry are separate records, joined by “and”; a condition that tells them apart may be missing. Equal entries are not always repeated. Where two headings read alike, the source gives them in different places.

Columns and labels:
[1] = in vitro; conditions: hamster
[2] = test system: vaccinia virus (modified vaccinia virus Ankara; MVA); assay: microbe, parasite or virus in culture; assay type: cell-based
[3] = test system: Vaccinia virus (MVA strain); assay type: cell-based
[4] = in vitro; conditions: hamster, BHK-21 cells, no virus, 2 days
[5] = CC50, Average of Tests 1-2 (Table 1)
[6] = CC50, Average, Tests 1-3 (Table 1A)
[7] = CC50, Test 2, uninfected BHK-21 cells, 3 days
[8] = CC50, Test 3, uninfected BHK-21 cells, 3 days

SMILES: Nc1ccn(C[C@@H](CO)OCP(=O)(O)O)c(=O)n1 [Cidofovir]
- CC50 [1, 5]: > 100 µM
- CC50 [1, 6]: > 73 µM
- CC50 ([1]; CC50, Test 1, uninfected BHK-21 cells, 3 days): > 100 µM
- CC50 [1, 7]: > 100 µM
- CC50 [1, 8]: 73 µM
- EC50 [2]: 2.6 µM and 7.2 µM
- EC50 ([2]; Orthopoxvirus vaccinia): 4.9 µM

SMILES: CCC(CC)COC(=O)[C@H](C)N[P@](=O)(OC[C@H]1O[C@@](C#N)(c2ccc3c(N)ncnn23)[C@H](O)[C@@H]1O)Oc1ccccc1 [Compound of Formula Ia, (S)-2-ethylbutyl 2-(((S)-(((2R,3S,4R,5R)-5-(4-aminopyrrolo[2,1-f][1,2,4]triazin-7-yl)-5-cyano-3,4-dihydroxytetrahydrofuran-2-yl)methoxy)(phenoxy)phosphoryl)amino)propanoate]
- CC50 [1, 5]: 12.8 µM
- CC50 [1, 6]: > 2.5 µM
- CC50 [1, 7]: 2.5 µM
- CC50 [1, 8]: > 50 µM
- EC50 [2]: 2.3 µM and 0.55 µM
- EC50 ([2]; Orthopoxvirus vaccinia): 1.43 µM
- EC50 ([3]; read-out: Average EC50 ± SD): 0.773 ± 0.131 µM
- EC50 ([3]; read-out: EC50): 0.726 µM
- CC50 ([4]; CC50, n=3): 26.1 µM
- CC50 ([4]; CC50 ± SD, n=4): 28.8 ± 11.5 µM
